Results reported in patent publication EP4659750A1, “PHARMACEUTICAL COMPOSITION CONTAINING ß-LACTAMASE INHIBITOR AND USE THEREOF” (Evopoint Biosciences Co., Ltd., priority 2023, dated 2024).
Converted amounts (≈) assume the structure as drawn. Read-outs that look alike come from different tables or passages of the source.

Experiments:
[1] = tested on: Pseudomonas aeruginosa ACC00680; assay: Neutropenic mouse thigh infection model, Example 2 (imipenem, cilastatin and Compound 1); format: in vivo; settings: Compound 1 96 mg/kg total IV; doses at 1,3,5,7 h; thighs 9 h after inoculation
Protocol: In the following examples, the tests are conducted following the steps below. • (1) Immunization of mice: All mice are injected intraperitoneally with 150 mg/kg cyclophosphamide 4 days before inoculation and 100 mg/kg cyclophosphamide 1 day before inoculation to reduce their neutrophils by immunosuppression. […] The mice are inoculated approximately 24 hours after the second administration of the immunosuppressant. • (2) Bacterial culture: All bacterial strains used for inoculation are prepared from overnight broth cultures. In brief, each strain is allowed to grow in cation-adjusted MuellerHinton broth in a shaking incubator (300 RPM) at 37°C. […]
(§1) For Groups 2 to 16 above, animals were euthanized 9 hours after inoculation using an overdose of sodium pentobarbital, followed by confirmation of death by cervical dislocation. The thighs were dissected and weighed, then homogenized in an ice-cold sterile phosphate buffer using a Precellys microsphere homogenizer; and the homogenate was quantitatively cultured on drug-free agar (CLED or PSA) and incubated for 18-24 h at 37°C, followed by colony counting.
(§2) For the […] Group 1 (control group) above, animals were euthanized with an overdose of sodium pentobarbital 1 hour after inoculation. As described above, bilateral thighs were dissected and quantitatively cultured for use as final samples.

[2] = tested on: Acinetobacter baumannii AR0274; assay: Neutropenic mouse thigh infection model, Example 3; format: in vivo; settings: doses at 1,3,5,7 h, thighs 9 h after inoculation
Protocol: (§3) In the following examples, the tests are conducted following the steps below. • (1) Immunization of mice: All mice are injected intraperitoneally with 150 mg/kg cyclophosphamide 4 days before inoculation and 100 mg/kg cyclophosphamide 1 day before inoculation to reduce their neutrophils by immunosuppression. […] The mice are inoculated approximately 24 hours after the second administration of the immunosuppressant. • (2) Bacterial culture: All bacterial strains used for inoculation are prepared from overnight broth cultures. In brief, each strain is allowed to grow in cation-adjusted MuellerHinton broth in a shaking incubator (300 RPM) at 37°C. The overnight cultures are washed twice with phosphate buffer solution (PBS) and adjusted to the optimal concentration in PBS.
(§4) For intravenous (IV) administration, the solution of Compound 1 is prepared using a Captisol vehicle, which is 25 mM acetate buffer (prepared with sodium acetate trihydrate) containing 10% w/v Captisol. The pH is adjusted to 5.0 with 2N acetic acid solution. A desired volume of buffer is added to the weighed sample, the desired concentration of Compound 1 is prepared in the buffer, which is then ultrasonically heated in a water bath until a clear solution was obtained. The administrated volume of Compound 1 is 5 mL/kg.
(§5) For subcutaneous (SC) administration, an imipenem solution or imipenem-cilastatin solution is prepared in sterile PBS by using imipenem monohydrate or imipenem monohydrate and cilastatin sodium. The desired concentration of imipenem is prepared by adding PBS to the solid powder, then sonicating the mixture in a water bath until a clear solution is obtained, and the administrated volume is 10 mL/kg.
The mice were divided into 16 groups, with 5 mice in each group. The test was carried out following the above experimental steps, the inoculation amount of Acinetobacter baumannii AR0274 was 1.8×10^6 CFU per gram of thigh tissue, and the administration was conducted according to the scheme in the table below.
as §1, §2

[3] = tested on: Klebsiella pneumoniae ARo113; assay: Neutropenic mouse thigh infection model, Example 4; format: in vivo; settings: doses at 1,3,5,7 h, thighs 9 h after inoculation
Protocol: as §3, §4, §5
(§6) The mice were divided into 16 groups, with 5 mice in each group. The test was carried out following the above steps, the concentration of the bacterial solution of Klebsiella pneumoniae ARo113 was 4.0x10^6 CFU per gram of thigh tissues, and the administration was conducted according to the scheme in the table below.
as §1, with “12-16” for “18-24”, “30°C,” for “37°C,”
as §2

[4] = Solubility of Compound 1 (HPLC), selection of solubilizer type; format: physicochemical; settings: for solubility at 24 h: read-out: Concentration
Protocol: The solubilization effect of sodium sulfobutylether-β-cyclodextrin (SBECD) and hydroxypropyl-β-cyclodextrin (HP-β-CD) on Compound 1 was investigated by taking the solubility in 50 mM pH 4.5 acetate buffer medium and water as a reference. […] Table Solubility of Compound 1 incubated for 24 h at 25°C
In the art, surfactants may also be used for solubilization. To further improve the solubility of Compound 1, a surfactant was added on the basis of SBECD to investigate the solubility. […] Table Solubility of Compound 1 incubated for 24 h at 25°C

OXA β-lactamases = assay: In vitro inhibition of OXA β-lactamases; format: biochemical, Acinetobacter baumannii; settings: in vitro (background statement)
[5] = tested on: Pseudomonas aeruginosa ACC00680; assay: Neutropenic mouse thigh infection model, Example 1 (imipenem and Compound 1); format: in vivo; settings: doses at 1,3,5,7 h, thighs 9 h after inoculation
Protocol: as §3, §4, §5
as §6, with “15” for “16”, “Pseudomonas aeruginosa ACC00680” for “Klebsiella pneumoniae ARo113”, “1.83×10^5 colony forming unit (CFU)” for “4.0x10^6 CFU”
as §1, with “15” for “16”
as §2

Pseudomonas aeruginosa = assay: Mice neutropenic thigh infection model, human-simulated dosing regimen, Example 5; format: in vivo; settings: monotherapy, human-simulated imipenem dosing regimen (500 mg, q6h, infused for 60 minutes); four strains; 24 h
Protocol: In terms of administrated dose, imipenem was administered with a human-simulated dosing regimen (500 mg, q6h, infused for 60 minutes),and also combined with different doses of Compound 1.

Klebsiella pneumoniae = assay: as above; format: in vivo; settings: monotherapy, human-simulated imipenem dosing regimen (500 mg, q6h, infused for 60 minutes); four strains
Acinetobacter baumannii = assay: as above; format: in vivo; settings: monotherapy, human-simulated imipenem dosing regimen (500 mg, q6h, infused for 60 minutes); seven strains; 24 h

N=C1NC[C@@H](c2nnc([C@@H]3CC4(CC4)[C@@H]4CN3C(=O)N4OS(=O)(=O)O)o2)N1 [Compound 1]
Change in Pre-Tx Log10 loading (CFU/g) [1]: 2.45 log10 CFU/g | Log10 group geometric mean (CFU/g) [1]: 7.51 log10 CFU/g | Change in Pre-Tx Log10 loading (CFU/g) ([2]; Compound 1 96 mg/kg total IV): 1.53 log10 CFU/g | Log10 group geometric mean (CFU/g) ([2]; Compound 1 96 mg/kg total IV): 7.28 log10 CFU/g | Change in Pre-Tx Log10 loading (CFU/g) ([3]; Compound 1 96 mg/kg total): 1.11 log10 CFU/g | Log10 group geometric mean (CFU/g) ([3]; Compound 1 96 mg/kg total): 7.31 log10 CFU/g | solubility at 24 h ([4]; 50 mm acetate buffer, pH 4.5, aqueous buffer, solubility in 50 mM acetate buffer (pH 4.5) (control), 24 h at 25°C): 3850 µg/mL (≈ 9.64 mM) | solubility at 24 h ([4]; aqueous hp-β-cd 10%, solubility in aqueous HP-β-CD 10%, 24 h at 25°C): 5000 µg/mL (≈ 12.5 mM) | solubility at 24 h ([4]; aqueous hp-β-cd 20%, solubility in aqueous HP-β-CD 20%, 24 h at 25°C): 6400 µg/mL (≈ 16 mM) | solubility at 24 h ([4]; aqueous hp-β-cd 30%, solubility in aqueous HP-β-CD 30%, 24 h at 25°C): 7720 µg/mL (≈ 19.3 mM) | solubility at 24 h ([4]; aqueous sbecd 10%, peg 400, organic solvent or mixture, solubility in aqueous SBECD 10% and PEG 400 5%, 24 h at 25°C): 6210 µg/mL (≈ 15.5 mM) | solubility at 24 h ([4]; aqueous sbecd 10%, peg 400, organic solvent or mixture, solubility in aqueous SBECD 10% and PEG 400 20%, 24 h at 25°C): 6350 µg/mL (≈ 15.9 mM) | solubility at 24 h ([4]; aqueous sbecd 10%, peg 400, organic solvent or mixture, solubility in aqueous SBECD 10% and PEG 400 40%, 24 h at 25°C): 6840 µg/mL (≈ 17.1 mM) | solubility at 24 h ([4]; aqueous sbecd 10%, pvp k12, solubility in aqueous SBECD 10% and PVP K12 0.5%, 24 h at 25°C): 6440 µg/mL (≈ 16.1 mM) | solubility at 24 h ([4]; aqueous sbecd 10%, pvp k12, solubility in aqueous SBECD 10% and PVP K12 1%, 24 h at 25°C): 6420 µg/mL (≈ 16.1 mM) | solubility at 24 h ([4]; aqueous sbecd 10%, pvp k12, solubility in aqueous SBECD 10% and PVP K12 2.5%, 24 h at 25°C): 6380 µg/mL (≈ 16 mM) | solubility at 24 h ([4]; aqueous sbecd 10%, solubility in aqueous SBECD 10%, 24 h at 25°C): 5960 µg/mL (≈ 14.9 mM) | solubility at 24 h ([4]; aqueous sbecd 20%, solubility in aqueous SBECD 20%, 24 h at 25°C): 8460 µg/mL (≈ 21.2 mM) | solubility at 24 h ([4]; aqueous sbecd 30%, solubility in aqueous SBECD 30%, 24 h at 25°C): 10500 µg/mL (≈ 26.3 mM) | solubility at 24 h ([4]; aqueous sbecd, poloxamer 188, solubility in aqueous SBECD 10% and Poloxamer 188 1%, 24 h at 25°C): 6750 µg/mL (≈ 16.9 mM) | solubility at 24 h ([4]; aqueous sbecd, pvp, poloxamer 188, solubility in aqueous SBECD 10%, PVP K12 0.5% and Poloxamer 188 1%, 24 h at 25°C): 6950 µg/mL (≈ 17.4 mM) | solubility at 24 h ([4]; aqueous sbecd, pvp, solutol hs15, solubility in aqueous SBECD 10%, PVP K12 0.5% and Solutol HS15 1%, 24 h at 25°C): 6870 µg/mL (≈ 17.2 mM) | solubility at 24 h ([4]; aqueous sbecd, pvp, tween 80, solubility in aqueous SBECD 10%, PVP K12 0.5% and Tween 80 1%, 24 h at 25°C): 6990 µg/mL (≈ 17.5 mM) | solubility at 24 h ([4]; aqueous sbecd, solutol hs15, solubility in aqueous SBECD 10% and Solutol HS15 1%, 24 h at 25°C): 6680 µg/mL (≈ 16.7 mM) | solubility at 24 h ([4]; aqueous sbecd, tween 80, solubility in aqueous SBECD 10% and Tween 80 1%, 24 h at 25°C): 6920 µg/mL (≈ 17.3 mM) | Concentration ([4]; solubility in aqueous SBECD 10%, 24 h at 25°C): 5960 µg/mL | Concentration ([4]; solubility in water (control), incubated 24 h at 25°C): 600 µg/mL | solubility at 24 h ([4]; water, solubility in water (control), incubated 24 h at 25°C): 600 µg/mL (≈ 1.5 mM) | inhibition of OXA β-lactamases (OXA β-lactamases): effectively inhibit | Change in Pre-Tx Log10 load ([5]; Compound 1 50 mg/kg total IV): 0.36 log10 CFU/g | Log10 group geometric mean (CFU/g) ([5]; Compound 1 50 mg/kg total IV): 5.67 log10 CFU/g | Change in Pre-Tx Log10 load ([5]; Compound 1 75 mg/kg total IV): 0.98 log10 CFU/g | Log10 group geometric mean (CFU/g) ([5]; Compound 1 75 mg/kg total IV): 6.29 log10 CFU/g | Change in Pre-Tx Log10 load ([5]; Compound 1 100 mg/kg total IV): 1.35 log10 CFU/g | Log10 group geometric mean (CFU/g) ([5]; Compound 1 100 mg/kg total IV): 6.65 log10 CFU/g

C[C@@H](O)[C@H]1C(=O)N2C(C(=O)O)=C(SCCN=CN)C[C@H]12 [Imipenem, imipenem monohydrate]
mean increase in bacterial load (Pseudomonas aeruginosa): 2.64 ± 1.18 log10 CFU/thigh | Change in Pre-Tx Log10 loading (CFU/g) ([2]; Imipenem 96 mg/kg total SC): 1.85 log10 CFU/g | Group geometric mean (CFU/g) ([2]; Imipenem 96 mg/kg total SC): 3.91×10^7 CFU/g | Log10 group geometric mean (CFU/g) ([2]; Imipenem 96 mg/kg total SC): 7.59 log10 CFU/g | mean increase in bacterial load (Klebsiella pneumoniae): 2.83 ± 0.81 log10 CFU/thigh | Change in Pre-Tx Log10 loading (CFU/g) ([3]; Imipenem 96 mg/kg total SC): 0.93 log10 CFU/g | Group geometric mean (CFU/g) ([3]; Imipenem 96 mg/kg total SC): 1.34×10^7 CFU/g | Log10 group geometric mean (CFU/g) ([3]; Imipenem 96 mg/kg total SC): 7.13 log10 CFU/g | mean increase in bacterial load (Acinetobacter baumannii): 2.16 ± 0.74 log10 CFU/thigh | Change in Pre-Tx Log10 load ([5]; Imipenem 100 mg/kg total SC): 0.73 log10 CFU/g | Group geometric mean (CFU/g) ([5]; Imipenem 100 mg/kg total SC): 1.08×10^6 CFU/g | Log10 group geometric mean (CFU/g) ([5]; Imipenem 100 mg/kg total SC): 6.03 log10 CFU/g
